Where two headings read alike, the source gives them in different places. Where a SMILES comes first, the peptide text is derived from it. [ ]: non-standard residue; d: D form. The star is where a group is joined. dPhe(4-NHCONH2) = NC(=O)Nc1ccc(C[C@@H](N)C(=O)O)cc1; Dihydroorotyl(S) = O=C1C[C@@H](C(=O)*)NC(=O)N1; dPhe(4-Cl) = N[C@H](Cc1ccc(Cl)cc1)C(=O)O; Phe(4-NH2) = Nc1ccc(C[C@H](N)C(=O)O)cc1; d2Nal = N[C@H](Cc1ccc2ccccc2c1)C(=O)O; Lys(iPr) = CC(C)NCCCC[C@H](N)C(=O)O; d3Pal = N[C@H](Cc1cccnc1)C(=O)O
Experiments:
[1] = tested on: serum testosterone; test: Clinical trial CS18 (Phase 2, three-month dosing regimen): serum testosterone ≦0.5 ng/mL; assay type: in vivo, human; settings: for cumulative probability of testosterone ≦0.5 ng/mL, Kaplan-Meier estimate / number of patients with testosterone > 0.5 ng/mL: Day 28 to Day 364; for cumulative probability of testosterone ≦0.5 ng/mL, Kaplan-Meier estimate / proportion of patients with testosterone ≦0.5 ng/mL: ITT
Protocol: (§1) The present study included a starting degarelix dose of 240 mg (with a concentration of 40 mg/mL of solvent), followed by maintenance doses of degarelix: i.e., 360 mg (with a concentration of 60 mg/mL of solvent) or 480 mg (with a concentration of 60 mg/mL of solvent), the latter administered at Months 1, 4, 7, and 10.
(§2) The study was open labeled and patients received a starting dose of 240 mg (with a concentration of 40 mg/mL of solvent) at Month 0 followed by one of two degarelix maintenance dose treatment regimens: 360 mg (with a concentration of 60 mg/mL of solvent) at Months 1, 4, 7, and 10; or 480 mg (with a concentration of 60 mg/mL of solvent) at Months 1, 4, 7, and 10.
(§3) The starting dose was administered subcutaneously as two injections of 120 mg (with a concentration of 40 mg/ml of solvent, given as 2×3 mL injections). After 28 days a maintenance dose of 360 mg (with a concentration of 60 mg/mL, given as 2×3 mL injections) or 480 mg (with a concentration of 60 mg/mL, given as 2×4 mL injections) was administered, also in two injections (each of 240 mg). Thereafter, with three monthly intervals, maintenance doses were given, again in the form of two injections. […] At each visit, serum testosterone, prostate specific androgen (PSA), and plasma concentration of degarelix were measured by techniques well known in the art.

[2] = clinical; settings: male, human, in vivo, sc
Protocol: as §1, §2, §3

[3] = male, human, in vivo, sc
Protocol: as §1, §2, §3

[4] = clinical; settings: human, in vivo, 240 mg
Protocol: A three-month dosing regimen Phase 2 study investigated three different dosing regimens. After a starting dose of […] (with a concentration of 40 mg/mL of solvent), a further dose (i.e., maintenance dose) of 240 mg was given on Day 28, and then at Months 3, 6, and 9 or at Months 4, 7, and 10. Maintenance doses of 240 mg were evaluated initially at concentrations of 40 mg/mL and 60 mg/mL in this study, based on the observed results by different PK profiles of different concentrations. The patients were randomized in parallel to one of three different three-month maintenance dosing regimens of degarelix:
Thus, patients with lower degarelix plasma levels were more likely to have a testosterone level>0.5 ng/mL during the one year treatment period. […] This is consistent with the observation that for most patients, the time of first occurrence of a testosterone level>0.5 ng/mL was three months after a previous dose, at the time of trough degarelix plasma levels. The median trough degarelix plasma levels in the study ranged from about 6.5-7.5 ng/mL.

level at 1 year ([2]; 360 mg): ~10 ng/mL | level at 1 year ([2]; 480 mg): ~13 ng/mL | estimated median degarelix trough concentration ([3]; 360 mg): above 9 ng/mL | estimated median degarelix trough concentration ([3]; 480 mg): above 9 ng/mL | estimated median degarelix trough concentration [4]: < 9 ng/mL
SMILES: CC(=O)N[C@H](Cc1ccc2ccccc2c1)C(=O)N[C@H](Cc1ccc(Cl)cc1)C(=O)N[C@H](Cc1cccnc1)C(=O)N[C@@H](CO)C(=O)N[C@@H](Cc1ccc(NC(=O)[C@@H]2CC(=O)NC(=O)N2)cc1)C(=O)N[C@H](Cc1ccc(NC(N)=O)cc1)C(=O)N[C@@H](CC(C)C)C(=O)N[C@@H](CCCCNC(C)C)C(=O)N1CCC[C@H]1C(=O)N[C@H](C)C(N)=O [Degarelix, D-Alaninamide, N-acetyl-3-(2-naphthalenyl)-D-alanyl-4-chloro-D-phenylalanyl-3-(3-pyridinyl)-D-alanyl-L-seryl-4-[[[(4S)-hexahydro-2,6-dioxo-4-pyrimidinyl]carbonyl]amino]-L-phenylalanyl-4-[(aminocarbonyl)amino]-D-phenylalanyl-L leucyl-N6-(1-methylethyl)-L-lysyl-L-prolyl] (Ac-[d2Nal][dPhe(4-Cl)][d3Pal]S[Phe(4-NH2)](Dihydroorotyl(S))[dPhe(4-NHCONH2)]L[Lys(iPr)]P[dA]-NH2)
cumulative probability of testosterone ≦0.5 ng/mL, Kaplan-Meier estimate ([1]; 360 mg (60 mg/mL) maintenance Months 1,4,7,10 after 240 mg start): 89.0% | cumulative probability of testosterone ≦0.5 ng/mL, Kaplan-Meier estimate ([1]; 360 mg (60 mg/mL) maintenance Months 1,4,7,10 after 240 mg start, listed as degarelix): 89.0% | patients with sustained testosterone suppression over the course of the observed time period ([1]; 360 mg (60 mg/mL) maintenance dose): at least 90% | cumulative probability of testosterone ≦0.5 ng/mL, Kaplan-Meier estimate ([1]; 480 mg (60 mg/mL) maintenance Months 1,4,7,10 after 240 mg start): 93.3% | cumulative probability of testosterone ≦0.5 ng/mL, Kaplan-Meier estimate ([1]; 480 mg (60 mg/mL) maintenance Months 1,4,7,10 after 240 mg start, listed as degarelix): 93.3% | patients with sustained testosterone suppression over the course of the observed time period ([1]; 480 mg (60 mg/mL) maintenance dose): > 95% | coverage probability (confidence of true suppression rate being greater than 90%) ([1]; 360/60 mg): 39.7% | proportion of patients with testosterone ≦0.5 ng/mL ([1]; 360/60 mg, Day 28): 98.5% | proportion of patients with testosterone ≦0.5 ng/mL ([1]; 360/60 mg, Day 56): 100% | proportion of patients with testosterone ≦0.5 ng/mL ([1]; 360/60 mg, Day 84): 100% | proportion of patients with testosterone ≦0.5 ng/mL ([1]; 360/60 mg, Day 112): 96.8% | proportion of patients with testosterone ≦0.5 ng/mL ([1]; 360/60 mg, Day 140): 100% | proportion of patients with testosterone ≦0.5 ng/mL ([1]; 360/60 mg, Day 168): 98.4% | proportion of patients with testosterone ≦0.5 ng/mL ([1]; 360/60 mg, Day 196 (before re-dosing at Month 7)): 90.6% | proportion of patients with testosterone ≦0.5 ng/mL ([1]; 360/60 mg, Day 196 (before re-dosing at Month 7), listed as degarelix): 90.6% | proportion of patients with testosterone ≦0.5 ng/mL ([1]; 360/60 mg, Day 224): 98.4% | proportion of patients with testosterone ≦0.5 ng/mL ([1]; 360/60 mg, Day 252): 98.4% | proportion of patients with testosterone ≦0.5 ng/mL ([1]; 360/60 mg, Day 280 (before re-dosing at Month 10)): 93.3% | proportion of patients with testosterone ≦0.5 ng/mL ([1]; 360/60 mg, Day 280 (before re-dosing at Month 10), listed as degarelix): 93.3% | proportion of patients with testosterone ≦0.5 ng/mL ([1]; 360/60 mg, Day 308): 100% | proportion of patients with testosterone ≦0.5 ng/mL ([1]; 360/60 mg, Day 336): 96.7% | proportion of patients with testosterone ≦0.5 ng/mL ([1]; 360/60 mg, Day 364): 95.0% | number of patients with testosterone > 0.5 ng/mL ([1]; 360/60 mg, N=67): 7 | coverage probability (confidence of true suppression rate being greater than 90%) ([1]; 360/60 mg, listed as degarelix): 39.7% | coverage probability (confidence of true suppression rate being greater than 90%) ([1]; 480/60 mg): 79.9% | proportion of patients with testosterone ≦0.5 ng/mL ([1]; 480/60 mg, Day 28): 98.4% | proportion of patients with testosterone ≦0.5 ng/mL ([1]; 480/60 mg, Day 56): 98.4% | proportion of patients with testosterone ≦0.5 ng/mL ([1]; 480/60 mg, Day 84): 98.4% | proportion of patients with testosterone ≦0.5 ng/mL ([1]; 480/60 mg, Day 112): 96.7% | proportion of patients with testosterone ≦0.5 ng/mL ([1]; 480/60 mg, Day 140): 98.3% | proportion of patients with testosterone ≦0.5 ng/mL ([1]; 480/60 mg, Day 168): 98.3% | proportion of patients with testosterone ≦0.5 ng/mL ([1]; 480/60 mg, Day 196): 98.3% | proportion of patients with testosterone ≦0.5 ng/mL ([1]; 480/60 mg, Day 224): 98.3% | proportion of patients with testosterone ≦0.5 ng/mL ([1]; 480/60 mg, Day 252): 100% | proportion of patients with testosterone ≦0.5 ng/mL ([1]; 480/60 mg, Day 280): 98.2% | proportion of patients with testosterone ≦0.5 ng/mL ([1]; 480/60 mg, Day 308): 100% | proportion of patients with testosterone ≦0.5 ng/mL ([1]; 480/60 mg, Day 336): 100% | proportion of patients with testosterone ≦0.5 ng/mL ([1]; 480/60 mg, Day 364): 96.3% | number of patients with testosterone > 0.5 ng/mL ([1]; 480/60 mg, N=66): 4 | coverage probability (confidence of true suppression rate being greater than 90%) ([1]; 480/60 mg, listed as degarelix): 79.9% | cumulative probability of testosterone ≦0.5 ng/mL, Kaplan-Meier estimate ([1]; Total (480 mg and 360 mg arms)): 92.8% | proportion of patients with testosterone ≦0.5 ng/mL ([1]; Total (both arms, after 240 mg starting dose), Day 28): 98.4% | proportion of patients with testosterone ≦0.5 ng/mL ([1]; Total (both arms, after 240 mg starting dose), Day 28, listed as degarelix): 98% | number of patients with testosterone > 0.5 ng/mL ([1]; Total, N=133): 11
